The NIST ThermoML archive (doi:10.1016/j.jct.2012.09.026)

Key:
[1] = Liquid, Vibrating tube method
[2] = xn = mol fraction of the nth substance listed; conditions: Liquid, x2 = 0

O [water]
mass density [kg/m3], [1]
Conditions | 101.3 kPa | 10000 kPa | 25000 kPa | 50000 kPa | 75000 kPa | 100000 kPa
278.15 K | 999.96 | 1004.77 | 1011.88 | 1023.2 | 1033.91 | 1044.08
288.15 K | – | 1003.67 | 1010.42 | 1021.21 | 1031.47 | 1041.23
298.15 K | – | 1001.47 | 1007.99 | 1018.44 | 1028.37 | 1037.86
308.15 K | – | 998.36 | 1004.75 | 1014.97 | 1024.71 | 1034
323.15 K | 988.03 | 992.31 | 998.61 | 1008.68 | 1018.27 | 1027.42

CC(C)(C)O [2-methylpropan-2-ol]
mass density [kg/m3], [1]
Conditions | 101.3 kPa | 10000 kPa | 25000 kPa | 50000 kPa | 75000 kPa | 100000 kPa
308.15 K | 770.14 | – | – | – | – | –
323.15 K | 753.94 | 764.58 | 778.73 | 798.2 | 813.79 | 827.34

O [water] + CC(C)(C)O
mass density [kg/m3], [2]
Conditions | 278.15 K | 288.15 K | 298.15 K | 308.15 K | 323.15 K
101.3 kPa, Vibrating tube method | 999.96 | – | – | – | 988.03
10000 kPa, Constant-volume piezometry | 1004.77 | 1003.67 | 1001.47 | 998.36 | 992.31
25000 kPa, Constant-volume piezometry | 1011.88 | 1010.42 | 1007.99 | 1004.75 | 998.61
50000 kPa, Constant-volume piezometry | 1023.2 | 1021.21 | 1018.44 | 1014.97 | 1008.68
75000 kPa, Constant-volume piezometry | 1033.91 | 1031.47 | 1028.37 | 1024.71 | 1018.27
100000 kPa, Constant-volume piezometry | 1044.08 | 1041.23 | 1037.86 | 1034 | 1027.42
